The subject of this test is NFkB activity. Nature of the test: Glucocorticoid Mediated Transrepression of NFkB Activity. The class given is cell-based. The conditions noted are these: Human A549 lung epithelial cells, NFkB dependent ELAM promoter alkaline phosphatase reporter, 3 ng/ml TNFα. The text has this: Glucocorticoid Mediated Transrepression of NFkB Activity
Human A549 lung epithelial cells were engineered to contain a secreted placental alkaline phosphatase gene under the control of the distal region of the NFkB dependent ELAM promoter as previously described in Ray, K. P., Farrow, S., Daly, M., Talabot, F. and Searle, N. “Induction of the E-selectin promoter by interleukin 1 and tumour necrosis factor alpha, and inhibition by glucocorticoids” Biochemical Journal (1997) 328: 707-15.
Compounds were solvated and diluted in DMSO, and transferred directly into assay plates such that the final concentration of DMSO was 0.7%. Following the addition of cells (40K per well), plates were incubated for 1 hr prior to the addition of 3 ng/ml human recombinant TNFα. Following continued incubation for 16 hr, alkaline phosphatase activity was determined by measuring the change in optical density at 405 nm with time following the addition of 0.7 volumes of assay buffer (1 mg/ml p-nitrophenylphosphate dissolved in 1M diethanolamine, 0.28M NaCl, 0.5 mM MgCl2). Dose response curves were constructed from which EC50 values were estimated.

Experimental findings from patent US7943651B2, “Compounds” (Glaxo Group Limited, priority 2006, dated 2011) are described below.

`COc1ccc(F)cc1C(C)(C)CC(O)(CNc1cc(C)cc2c1cnn2-c1cccc(C(=O)N[C@H](C)C(N)=O)c1)C(F)(F)F` (mixture of isomers) [Example 3, N-[(1R)-2-Amino-1-methyl-2-oxoethyl]-3-(4-{[4-[5-fluoro-2-(methyloxy)phenyl]-2-hydroxy-4-methyl-2-(trifluoromethyl)pentyl]amino}-6-methyl-1H-indazol-1-yl)benzamide]: the EC50 was below 3.16 nM. As for `COc1ccc(F)cc1C(C)(C)CC(O)(CNc1cc(C)cc2c1cnn2-c1cccc(C(=O)N2CCC[C@@H]2C(N)=O)c1)C(F)(F)F` (mixture of isomers) [Example 7, 1-{[3-(4-{[4-[5-Fluoro-2-(methyloxy)phenyl]-2-hydroxy-4-methyl-2-(trifluoromethyl)pentyl]amino}-6-methyl-1H-indazol-1-yl)phenyl]carbonyl}-D-prolinamide], the figure is below 3.16 nM. The value for `COc1ccc(F)cc1C(C)(C)CC(O)(CNc1cc(C)cc2c1cnn2-c1cccc(C(=O)NCC(N)=O)c1)C(F)(F)F` (racemic) [Example 1, N-(2-Amino-2-oxoethyl)-3-(4-{[4-[5-fluoro-2-(methyloxy)phenyl]-2-hydroxy-4-methyl-2-(trifluoromethyl)pentyl]amino}-6-methyl-1H-indazol-1-yl)benzamide] was below 3.16 nM. Compound `COc1ccc(F)cc1C(C)(C)CC(O)(CNc1cc(C)cc2c1cnn2-c1cccc(C(=O)N(C)CC(N)=O)c1)C(F)(F)F` (racemic) [Example 2, N-(2-Amino-2-oxoethyl)-3-(4-{[4-[5-fluoro-2-(methyloxy)phenyl]-2-hydroxy-4-methyl-2-(trifluoromethyl)pentyl]amino}-6-methyl-1H-indazol-1-yl)-N-methylbenzamide] had an EC50 below 3.16 nM. `COc1ccc(F)cc1C(C)(C)CC(O)(CNc1cc(C)cc2c1cnn2-c1cccc(C(=O)NC(C)(C)C(N)=O)c1)C(F)(F)F` (racemic) [Example 5, N-(2-Amino-1,1-dimethyl-2-oxoethyl)-3-(4-{[4-[5-fluoro-2-(methyloxy)phenyl]-2-hydroxy-4-methyl-2-(trifluoromethyl)pentyl]amino}-6-methyl-1H-indazol-1-yl)benzamide]: the EC50 is below 3.16 nM. As for `COc1ccc(F)cc1C(C)(C)CC(O)(CNc1cc(C)cc2c1cnn2-c1cccc(C(=O)NCC(N)=O)c1)C(F)(F)F` (single isomer, unassigned) [Example 1-A, N-(2-amino-2-oxoethyl)-3-(4-{[4-[5-fluoro-2-(methyloxy)phenyl]-2-hydroxy-4-methyl-2-(trifluoromethyl)pentyl]amino}-6-methyl-1H-indazol-1-yl)benzamide], the figure is below 3.16 nM. As for `COc1ccc(F)cc1C(C)(C)CC(O)(CNc1cc(C)cc2c1cnn2-c1cccc(C(=O)N(C)CC(N)=O)c1)C(F)(F)F` (single isomer, unassigned) [Example 2-A, N-(2-amino-2-oxoethyl)-3-(4-{[4-[5-fluoro-2-(methyloxy)phenyl]-2-hydroxy-4-methyl-2-(trifluoromethyl)pentyl]amino}-6-methyl-1H-indazol-1-yl)-N-methylbenzamide], the figure is below 3.16 nM. As for `COc1ccc(F)cc1C(C)(C)CC(O)(CNc1cc(C)cc2c1cnn2-c1cccc(C(=O)N[C@H](C)C(N)=O)c1)C(F)(F)F` (single isomer, unassigned) [Example 3-A], the EC50 was below 3.16 nM. The value for `COc1ccc(F)cc1C(C)(C)CC(O)(CNc1cc(C)cc2c1cnn2-c1cccc(C(=O)NC(C)(C)C(N)=O)c1)C(F)(F)F` (single isomer, unassigned) [Example 5-A, N-(2-amino-1,1-dimethyl-2-oxoethyl)-3-(4-{[4-[5-fluoro-2-(methyloxy)phenyl]-2-hydroxy-4-methyl-2-(trifluoromethyl)pentyl]amino}-6-methyl-1H-indazol-1-yl)benzamide] was below 3.16 nM; that for `COc1ccc(F)cc1C(C)(C)C[C@@](O)(CNc1cc(C)cc2c1cnn2-c1cccc(C(=O)N2CCC[C@@H]2C(N)=O)c1)C(F)(F)F` (single isomer, unassigned) [Example 7-A] was below 3.16 nM. The value for `COc1ccc(F)cc1C(C)(C)CC(O)(CNc1cc(C)cc2c1cnn2-c1cccc(C(=O)N[C@@H](C)C(N)=O)c1)C(F)(F)F` (stereo partly drawn) [Example 4, N-[(1S)-2-Amino-1-methyl-2-oxoethyl]-3-(4-{[4-[5-fluoro-2-(methyloxy)phenyl]-2-hydroxy-4-methyl-2-(trifluoromethyl)pentyl]amino}-6-methyl-1H-indazol-1-yl)benzamide] was below 3.16 nM; that for `COc1ccc(F)cc1C(C)(C)CC(O)(CNc1cc(C)cc2c1cnn2-c1cccc(C(=O)N2CCC[C@H]2C(N)=O)c1)C(F)(F)F` (stereo partly drawn) [Example 6, 1-{[3-(4-{[4-[5-Fluoro-2-(methyloxy)phenyl]-2-hydroxy-4-methyl-2-(trifluoromethyl)pentyl]amino}-6-methyl-1H-indazol-1-yl)phenyl]carbonyl}-L-prolinamide] was below 3.16 nM; that for `COc1ccc(F)cc1C(C)(C)CC(O)(CNc1cc(C)cc2c1cnn2-c1cccc(C(=O)N[C@@H](CO)C(N)=O)c1)C(F)(F)F` (stereo partly drawn) [Example 8, N-[(1S)-2-Amino-1-(hydroxymethyl)-2-oxoethyl]-3-(4-{[4-[5-fluoro-2-(methloxy)phenyl]-2-hydroxy-4-methyl-2-(trifluoromethyl)pentyl]amino}-6-methyl-1H-indazol-1-yl)benzamide] was below 3.16 nM. In the case of `Cc1cc(NCC(O)(CC(C)(C)c2cc(F)ccc2O)C(F)(F)F)c2cnn(-c3cccc(C(=O)N(C)CC(N)=O)c3)c2c1` (stereo not shown) [Example 9, N-(2-Amino-2-oxoethyl)-3-(4-{[4-(5-fluoro-2-hydroxyphenyl)-2-hydroxy-4-methyl-2-(trifluoromethyl)pentyl]amino}-6-methyl-1H-indazol-1-yl)-N-methylbenzamide], the EC50 was below 3.16 nM. For `Cc1cc(NCC(O)(CC(C)(C)c2cc(F)ccc2O)C(F)(F)F)c2cnn(-c3cccc(C(=O)NCC(N)=O)c3)c2c1` (stereo not shown) [Example 10, N-(2-Amino-2-oxoethyl)-3-(4-{[4-(5-fluoro-2-hydroxyphenyl)-2-hydroxy-4-methyl-2-(trifluoromethyl)pentyl]amino}-6-methyl-1H-indazol-1-yl)benzamide], the concentration for a half-maximal effect (EC50) was below 3.16 nM.

`Cc1cc(NCC(O)(CC(C)(C)c2cc(F)ccc2O)C(F)(F)F)c2cnn(-c3cccc(C(=O)N[C@H](C)C(N)=O)c3)c2c1` (stereo partly drawn) [Example 11, N-[(1R)-2-Amino-1-methyl-2-oxoethyl]-3-(4-{[4-(5-fluoro-2-hydroxyphenyl)-2-hydroxy-4-methyl-2-(trifluoromethyl)pentyl]amino}-6-methyl-1H-indazol-1-yl)benzamide] showed an EC50 below 3.16 nM. The value for `Cc1cc(NCC(O)(CC(C)(C)c2cc(F)ccc2O)C(F)(F)F)c2cnn(-c3cccc(C(=O)N4CCC[C@@H]4C(N)=O)c3)c2c1` (stereo partly drawn) [Example 12, 1-{[3-(4-{[4-(5-Fluoro-2-hydroxyphenyl)-2-hydroxy-4-methyl-2-(trifluoromethyl)pentyl]amino}-6-methyl-1H-indazol-1-yl)phenyl]carbonyl}-D-prolinamide] was below 3.16 nM; that for `CNC(=O)CNC(=O)c1cccc(-n2ncc3c(NCC(O)(CC(C)(C)c4cc(F)ccc4OC)C(F)(F)F)cc(C)cc32)c1` (stereo not shown) [Example 13, 3-(4-{[4-[5-Fluoro-2-(methyloxy)phenyl]-2-hydroxy-4-methyl-2-(trifluoromethyl)pentyl]amino}-6-methyl-1H-indazol-1-yl)-N-[2-(methylamino)-2-oxoethyl]benzamide] was below 3.16 nM.

In turn, `COc1ccc(F)cc1C(C)(C)CC(O)(CNc1cc(C)cc2c1cnn2-c1cccc(C(=O)N(C)[C@@H](C)C(N)=O)c1)C(F)(F)F` (stereo partly drawn) [Example 14, N-[(1S)-2-Amino-1-methyl-2-oxoethyl]-3-(4-{[4-[5-fluoro-2-(methloxy)phenyl]-2-hydroxy-4-methyl-2-(trifluoromethyl)pentyl]amino}-6-methyl-1H-indazol-1-yl)-N-methylbenzamide] showed an EC50 below 3.16 nM. The value for `COc1ccc(F)cc1C(C)(C)CC(O)(CNc1cc(C)cc2c1cnn2-c1cccc(C(=O)N(C)[C@H](C)C(N)=O)c1)C(F)(F)F` (stereo partly drawn) [Example 15, N-[(1R)-2-Amino-1-methyl-2-oxoethyl]-3-(4-{[4-[5-fluoro-2-(methloxy)phenyl]-2-hydroxy-4-methyl-2-(trifluoromethyl)-pentyl]amino}-6-methyl-1H-indazol-1-yl)-N-methylbenzamide] was below 3.16 nM; that for `COc1ccc(F)cc1C(C)(C)CC(O)(CNc1cc(C)cc2c1cnn2-c1cccc(C(=O)N[C@H](CO)C(N)=O)c1)C(F)(F)F` (stereo partly drawn) [Example 16, N-[(1R)-2-Amino-1-(hydroxymethyl)-2-oxoethyl]-3-(4-{[4-[5-fluoro-2-(methloxy)phenyl]-2-hydroxy-4-methyl-2-(trifluoromethyl)pentyl]amino}-6-methyl-1H-indazol-1-yl)benzamide] was below 3.16 nM. For `Cc1cc(NC[C@](O)(CC(C)(C)c2cc(F)ccc2O)C(F)(F)F)c2cnn(-c3cccc(C(=O)N4CCC[C@@H]4C(N)=O)c3)c2c1` [Example 17, 1-{[3-(4-{[(2R)-4-(5-Fluoro-2-hydroxyphenyl)-2-hydroxy-4-methyl-2-(trifluoromethyl)pentyl]amino}-6-methyl-1H-indazol-1-yl)phenyl]carbonyl}-D-prolinamide], the EC50 was below 3.16 nM.

Broadly, the EC50 is the concentration needed to bring the measured effect to its halfway point. High values mean weaker potency, low ones greater potency.
